Results: patent US8148572B2, “Compounds” (AstraZeneca AB, priority 2005, dated 2012)

Each compound was assayed against T1, rhCRTh2 (Homo sapiens, UniProt Q9Y5Y4) (assay: Ligand Binding Assay ([3H]PGD2 displacement, SPA beads coated with HEK cell membranes)). Settings: [3H]PGD2 binding to HEK cell membranes containing CRTh2; read-out: pIC50 value (converted).
T1 construct: expressed in transfected cells; host or cells: HEK cells (membrane preparation)
T1 sequence (Q9Y5Y4 1-395): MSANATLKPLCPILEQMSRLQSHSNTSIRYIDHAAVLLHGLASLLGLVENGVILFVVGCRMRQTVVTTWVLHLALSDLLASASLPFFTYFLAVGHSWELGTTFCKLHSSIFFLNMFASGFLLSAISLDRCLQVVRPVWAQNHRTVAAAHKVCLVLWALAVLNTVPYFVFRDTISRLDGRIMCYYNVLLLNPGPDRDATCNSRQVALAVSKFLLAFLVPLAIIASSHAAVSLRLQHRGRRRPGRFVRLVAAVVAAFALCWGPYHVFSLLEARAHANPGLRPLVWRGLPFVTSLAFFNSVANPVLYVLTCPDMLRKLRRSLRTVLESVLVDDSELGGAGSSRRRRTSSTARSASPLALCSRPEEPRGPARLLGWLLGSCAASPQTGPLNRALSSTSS
Procedure: [^3H]PGD2 was purchased from Perkin Elmer Life Sciences with a specific activity of 100-210 Ci/mmol. All other chemicals were of analytical grade.
HEK cells expressing rhCRTh2/Gα16 were routinely maintained in DMEM containing 10% Foetal Bovine Serum (HyClone), 1 mg/ml geneticin, 2 mM L-glutamine and 1% non-essential amino acids. For the preparation of membranes, the adherent transfected HEKcells were grown to confluence in two layer tissue culture factories (Fisher, catalogue number TKT-170-070E). Maximal levels of receptor expression were induced by addition of […] sodium butyrate for the last 18 hours of culture. The adherent cells were washed once with phosphate buffered saline (PBS, 50 ml per cell factory) and detached by the addition of 50 ml per cell factory of ice-cold membrane homogenisation buffer [20 mM HEPES (pH 7.4), 0.1 mM dithiothreitol, 1 mM EDTA, 0.1 mM phenyl methyl sulphonyl fluoride and 100 µg/ml bacitracin]. Cells were pelleted by centrifugation at 220×g for 10 minutes at 4° C., re-suspended in half the original volume of fresh membrane homogenisation buffer and disrupted using a Polytron homogeniser for 2×20 second bursts keeping the tube in ice at all times. […] The final pellet was re-suspended in 4 ml of membrane homogenisation buffer per cell factory used and the protein content determined. […]
All assays were performed in Corning clear bottomed, white 96-well NBS plates (Fisher). […] (The optimum coating concentrations were determined for each batch of membranes) The beads were pelleted by centrifugation (800×g for 7 minutes at 4° C.), washed once with assay buffer (50 mM HEPES pH 7.4 containing 5 mM magnesium chloride) and finally re-suspended in assay buffer at a bead concentration of 10 mg/ml. […]
Compounds and DK-PGD2 were dissolved in DMSO and diluted in the same solvent to 100× the required final concentration. […] The assay plate was incubated at room temperature for 2 hours and counted on a Wallac Microbeta liquid scintillation counter (1 minute per well).

IC50 | Compound
14.1 nM | CS(=O)(=O)c1ccc(Oc2cc(CC(=O)O)ccc2Cl)c(F)c1 [Example 9, {4-chloro-3-[2-fluoro-4-(methylsulfonyl)phenoxy]phenyl}acetic acid]
7.94 nM | CN(C)S(=O)(=O)c1ccc(Oc2cc(CC(=O)O)ccc2Cl)c(Cl)c1 [Example 7, (4-chloro-3-{2-chloro-4-[(dimethylamino)sulfonyl]phenoxy}phenyl)acetic acid]
8.91 nM | CS(=O)(=O)c1ccc(Oc2cc(CC(=O)O)ccc2Cl)c(C#N)c1 [Example 11, {4-chloro-3-[2-cyano-4-(methylsulfonyl)phenoxy]phenyl}acetic acid]
